Data on three molecules can be found in PMC8031368 (ACS chemical biology, 2020).

The nature of series [1]: Determination of partition coefficient. The format is physicochemical. Conditions: 1-octanol / PBS pH 7.4.
Series [2] can be described thus: Biodistribution study post mortem. The format is in vivo. Conditions: C57Bl6/J mice, mean ± SD.
Series [3] deals with T1, GR (Mus musculus, UniProt P06537).
T1 sequence (P06537 1-792): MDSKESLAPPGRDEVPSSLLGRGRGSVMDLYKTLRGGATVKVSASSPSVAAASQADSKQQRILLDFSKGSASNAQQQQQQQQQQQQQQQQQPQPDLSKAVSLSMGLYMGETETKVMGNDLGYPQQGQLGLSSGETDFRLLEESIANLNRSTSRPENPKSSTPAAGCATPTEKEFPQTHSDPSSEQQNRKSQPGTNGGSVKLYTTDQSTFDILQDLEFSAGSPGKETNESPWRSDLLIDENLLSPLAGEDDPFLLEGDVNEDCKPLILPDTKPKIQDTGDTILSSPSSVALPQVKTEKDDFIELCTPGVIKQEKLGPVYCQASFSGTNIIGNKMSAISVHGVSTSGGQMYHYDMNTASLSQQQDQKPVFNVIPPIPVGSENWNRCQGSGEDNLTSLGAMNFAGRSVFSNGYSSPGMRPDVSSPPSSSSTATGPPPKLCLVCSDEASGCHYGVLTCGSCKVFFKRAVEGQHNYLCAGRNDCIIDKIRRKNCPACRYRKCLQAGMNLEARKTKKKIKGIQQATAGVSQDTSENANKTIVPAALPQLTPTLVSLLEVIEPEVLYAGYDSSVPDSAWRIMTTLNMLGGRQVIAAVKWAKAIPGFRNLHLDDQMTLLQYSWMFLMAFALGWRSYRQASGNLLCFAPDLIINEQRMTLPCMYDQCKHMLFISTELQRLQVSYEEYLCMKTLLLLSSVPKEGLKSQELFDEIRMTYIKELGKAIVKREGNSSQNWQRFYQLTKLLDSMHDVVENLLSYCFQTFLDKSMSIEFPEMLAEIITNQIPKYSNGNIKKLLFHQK
The experiment in a line: 18F-YJH08 uptake in adrenalectomized mice.

Series [4] in a line: Dynamic PET scan over 60 min, time activity curves. In kind it is in vivo. Conditions: male C57Bl6/J mice.
Series [5] concerns the target T1, GR. The experiment in a line: 18F-YJH08 PET/CT in adipocyte specific GR knockout mice. In kind it is in vivo. The conditions noted are these: vs wild type litter mate, supraspinal and scapular brown fat depots.
In series [6] the test system is prostate cancer mouse models. Conditions: cited from earlier work.
The next series has as its system GR in MCF7. Put plainly: Immunoblot of GR in MCF7 cells treated with JG231. Conditions: 24 h. In kind it is cell-based, human. In general terms: Immunoblotting shows a protein as a band on a membrane.
The subject of another series is GR in MDA MB 231. Put plainly: Immunoblot of GR in MDA MB 231 cells treated with JG231. In kind it is cell-based, human. The conditions noted are these: 24 h.
In series [7] the test system is GR. The experiment in a line: Immunoblot of GR in tissues of JG231 treated mice. The format is in vivo. The conditions noted are these: JG231 4 mg/kg/day for 3 days intraperitoneally.
Series [8] has as its system GR target genes (GILZ, FKBP5, Per1) in DU145 cells. Put plainly: Real time PCR of GR target genes in DU145 cells. The conditions noted are these: DU145 cells, dexamethasone 1 μM, 6 h exposure. The format is cell-based, human. (Real-time PCR tracks product formation cycle by cycle.)

With `COc1cccc2c1-c1ccc3c(c1C(Cc1ccc([18F])cc1)O2)C(C)=CC(C)(C)N3` (centres unmarked) [18F-YJH08, ^18F-5-(4-fluorobenzyl)-10-methoxy-2,2,4-trimethyl-2,5-dihydro-1H-chromeno[3,4-f]quinoline], the “partition coefficient (log P)” value in series [1] is reported as 2.78. Further, in series [2] (30 min after injection), the “uptake in adrenal gland” value turned out to be 20.02 ± 2.21 % ID/g, the uptake in blood was 0.85 ± 0.1 % ID/g, the uptake in bone stood at 1.11 ± 0.15 % ID/g and the uptake in brain stood at 1.68 ± 0.14 % ID/g. Besides, in series [2] (30 min after injection), the uptake in heart came out at 3.04 ± 0.75 % ID/g, the uptake in kidney was determined as 4.5 ± 0.5 % ID/g, the “uptake in large intestine” value was 1.33 ± 0.35 % ID/g and the uptake in liver came to 11.03 ± 0.89 % ID/g. Further, in series [2] (30 min after injection), the uptake in lung came out at 2.65 ± 0.19 % ID/g, the uptake in muscle is on record as 1.49 ± 0.2 % ID/g, the uptake in pancreas came to 4.5 ± 0.15 % ID/g and the “uptake in small intestine” value worked out at 19.05 ± 3.27 % ID/g. Also, in series [2] (30 min after injection), the uptake in spleen worked out at 1.59 ± 0.13 % ID/g, the uptake in stomach stood at 1.88 ± 0.96 % ID/g and the “uptake in supraspinal BAT” value is 14.41 ± 3.42 % ID/g. Besides, in series [2] (60 min after injection), the “uptake in adrenal gland” value was found to be 9.43 ± 0.08 % ID/g, the uptake in blood is 0.57 ± 0.02 % ID/g, the uptake in bone came out at 0.61 ± 0.15 % ID/g and the uptake in brain is given as 1.33 ± 0.06 % ID/g. In series [2] (60 min after injection), the uptake in heart is reported as 1.33 ± 0.21 % ID/g, the uptake in kidney was determined as 2.35 ± 0.34 % ID/g, the “uptake in large intestine” value was 1.23 ± 0.43 % ID/g and the uptake in liver was determined as 7.7 ± 0.69 % ID/g. Also, in series [2] (60 min after injection), the uptake in lung is listed as 2.02 ± 0.29 % ID/g, the uptake in muscle is given as 1.15 ± 0.03 % ID/g, the uptake in pancreas turned out to be 2.63 ± 0.05 % ID/g and the “uptake in small intestine” value is recorded as 8.61 ± 2.68 % ID/g. In addition, in series [2] (60 min after injection), the uptake in spleen was 0.83 ± 0.02 % ID/g, the uptake in stomach stood at 1.63 ± 0.92 % ID/g and the “uptake in supraspinal BAT” value came to 16.4 ± 4.93 % ID/g. For the same molecule, in series [2] (90 min after injection), the “uptake in adrenal gland” value is 5.72 ± 2.32 % ID/g, the uptake in blood was determined as 0.49 ± 0.06 % ID/g, the uptake in bone was 0.58 ± 0.16 % ID/g and the uptake in brain is reported as 0.97 ± 0.03 % ID/g. Also, in [2] (90 min after injection), the uptake in heart turned out to be 0.92 ± 0.14 % ID/g, the uptake in kidney is given as 1.86 ± 0.26 % ID/g, the “uptake in large intestine” value is recorded as 6.67 ± 4.73 % ID/g and the uptake in liver came out at 8.43 ± 1.38 % ID/g. Besides, in series [2] (90 min after injection), the uptake in lung was 1.39 ± 0.1 % ID/g, the uptake in muscle is given as 0.85 ± 0.18 % ID/g, the uptake in pancreas stood at 1.9 ± 0.41 % ID/g and the “uptake in small intestine” value was found to be 7.67 ± 2.34 % ID/g. In addition, in [2] (90 min after injection), the uptake in spleen turned out to be 0.74 ± 0.15 % ID/g, the uptake in stomach is 2.61 ± 1.54 % ID/g and the “uptake in supraspinal BAT” value is given as 14.58 ± 1.91 % ID/g. Moreover, the “tissue uptake in adx mice compared to intact mice” value on GR [3] was “higher”. The mechanism of clearance entry in series [4] (liver uptake and washout) is on record as “hepatobiliary”. In addition, the “radiotracer uptake in the bone (stability to radiodefluorination)” value in series [4] is “low and approximately equivalent to muscle”. Further, the “uptake in fat depots of GR^fl/fl, Adipoq-Cre knockout mice” value at GR [5] is “significantly reduced”.

In the case of `CCn1c(=O)/c(=C2\Sc3cc(Cl)ccc3N2C)s/c1=C\c1scc[n+]1Cc1ccc(Br)s1.[Cl-]` [JG231], in [6], the antitumor activity result was “antitumor activity”. The “GR degradation (immunoblot)” value in the series on GR in MCF7 and in the series with GR in MDA MB 231 was “degrades GR” throughout. For the same molecule, the “change in GR levels in kidneys, liver, and muscle” value in the series with GR [7] was “no change”. For the same molecule, in the series with GR [7], the “reduction in GR expression levels in brown fat” value was ~ 50%.

With `C[C@@H]1C[C@H]2[C@@H]3CCC4=CC(=O)C=C[C@]4(C)[C@@]3(F)[C@@H](O)C[C@]2(C)[C@@]1(O)C(=O)CO` [dexamethasone, reference compound], in [8], the “induction of Per1” value is “induced”.
